Patent US8415351B2 (priority 2007, dated 2013)
pEC50: −log10 of the molar value.

Columns and labels:
[1] = test system: genotype 1a-H77 subgenomic replicon cell line; test: microbe, parasite or virus in culture; format: cell-based, HCV; details: Hepatitis C virus, read-out: EC50 1a
[2] = test system: genotype 1b-Con1 subgenomic replicon cell line; test: microbe, parasite or virus in culture; format: cell-based, HCV; details: Hepatitis C virus, read-out: EC50 1b

| SMILES | pEC50 [1] | pEC50 [2] |
| --- | --- | --- |
| COc1c(/C=C/c2ccc(NS(C)(=O)=O)cc2C(=O)N2CCC2)cc(-n2ccc(=O)[nH]c2=O)cc1C(C)(C)C [IB-L1-1.22, N-(3-(azetidine-1-carbonyl)-4-{(E)-2-[3-tert-butyl-5-(2,4-dioxo-3,4-dihydro-2H-pyrimidin-1-yl)-2-methoxy-phenyl]-vinyl}-phenyl)-methanesulfonamide] | 7.00 to 8.00 | > 8.00 |
| COc1c(/C=C/c2ccc(NS(C)(=O)=O)cc2C(=O)N2CCOCC2)cc(-n2ccc(=O)[nH]c2=O)cc1C(C)(C)C [IB-L1-1.23, (E)-N-(4-(3-tert-butyl-5-(2,4-dioxo-3,4-dihydropyrimidin-1(2H)-yl)-2-methoxystyryl)-3-(morpholine-4-carbonyl)phenyl)methanesulfonamide] | 6.00 to 7.00 | > 8.00 |
| COCCN(C)C(=O)c1cc(NS(C)(=O)=O)ccc1/C=C/c1cc(-n2ccc(=O)[nH]c2=O)cc(C(C)(C)C)c1OC [IB-L1-1.24, 2-{(E)-2-[3-tert-butyl-5-(2,4-dioxo-3,4-dihydro-2H-pyrimidin-1-yl)-2-methoxy-phenyl]-vinyl}-5-methanesulfonylamino-N-(2-methoxy-ethyl)-N-methyl-benzamide] | 7.00 to 8.00 | > 8.00 |
| COc1c(/C=C/c2ccc(NS(C)(=O)=O)cc2COC(C)C)cc(-n2ccc(=O)[nH]c2=O)cc1C(C)(C)C [IB-L1-1.25, N-(4-{(E)-2-[3-tert-butyl-5-(2,4-dioxo-3,4-dihydro-2H-pyrimidin-1-yl)-2-methoxy-phenyl]-vinyl}-3-isopropoxymethyl-phenyl)-methanesulfonamide] | 7.00 to 8.00 | > 8.00 |
| COc1c(/C=C/c2ccc(NS(C)(=O)=O)cc2-c2ncco2)cc(-n2ccc(=O)[nH]c2=O)cc1C(C)(C)C [IB-L1-1.26, (E)-N-(4-(3-tert-butyl-5-(2,4-dioxo-3,4-dihydropyrimidin-1(2H)-yl)-2-methoxystyryl)-3-(oxazol-2-yl)phenyl)methanesulfonamide] | 7.00 to 8.00 | > 8.00 |
| COc1c(/C=C/c2ccc(NS(C)(=O)=O)cc2C(=O)N2CCCC2)cc(-n2ccc(=O)[nH]c2=O)cc1C(C)(C)C [IB-L1-1.27, N-[4-{(E)-2-[3-tert-butyl-5-(2,4-dioxo-3,4-dihydro-2H-pyrimidin-1-yl)-2-methoxy-phenyl]-vinyl}-3-(pyrrolidine-1-carbonyl)-phenyl]-methanesulfonamide] | 7.00 to 8.00 | > 8.00 |
| COc1c(/C=C/c2ccc(NS(C)(=O)=O)cc2N)cc(-n2ccc(=O)[nH]c2=O)cc1C(C)(C)C [IB-L1-1.28, (E)-N-(3-amino-4-(3-tert-butyl-5-(2,4-dioxo-3,4-dihydropyrimidin-1(2H)-yl)-2-methoxystyryl)phenyl)methanesulfonamide] | > 8.00 | > 8.00 |
| COc1c(/C=C/c2ccc(NS(C)(=O)=O)cc2CN2CC(O)C2)cc(-n2ccc(=O)[nH]c2=O)cc1C(C)(C)C [IB-L1-1.29, N-[4-{(E)-2-[3-tert-butyl-5-(2,4-dioxo-3,4-dihydro-2H-pyrimidin-1-yl)-2-methoxy-phenyl]-vinyl}-3-(3-hydroxy-azetidin-1-ylmethyl)-phenyl]-methanesulfonamide] | 6.00 to 7.00 | 6.00 to 7.00 |
| CCOc1c(/C=C/c2ccc(NS(C)(=O)=O)cc2)cc(-n2ccc(=O)[nH]c2=O)cc1C(C)(C)C [IB-L1-1.30, (E)-N-(4-(3-tert-butyl-5-(2,4-dioxo-3,4-dihydropyrimidin-1(2H)-yl)-2-ethoxystyryl)phenyl)methanesulfonamide] | 6.00 to 7.00 | 7.00 to 8.00 |
| COc1c(/C=C/c2ccc(NS(C)(=O)=O)cc2CNCCC(C)C)cc(-n2ccc(=O)[nH]c2=O)cc1C(C)(C)C [IB-L1-1.31, (E)-N-(4-(3-tert-butyl-5-(2,4-dioxo-3,4-dihydropyrimidin-1(2H)-yl)-2-methoxystyryl)-3-((isopentylamino)methyl)phenyl)methanesulfonamide] | < 6.00 | < 6.00 |
| COc1c(/C=C/c2ccc(NS(C)(=O)=O)cc2NC(=O)OC(C)(C)C)cc(-n2ccc(=O)[nH]c2=O)cc1C(C)(C)C [IB-L1-1.32, (E)-tert-butyl 2-(3-tert-butyl-5-(2,4-dioxo-3,4-dihydropyrimidin-1(2H)-yl)-2-methoxystyryl)-5-(methylsulfonamido)phenylcarbamate] | 6.00 to 7.00 | 7.00 to 8.00 |
| COc1c(/C=C/c2ccc(NS(C)(=O)=O)cc2CN2CCCC2)cc(-n2ccc(=O)[nH]c2=O)cc1C(C)(C)C [IB-L1-1.33, N-(4-{(E)-2-[3-tert-Butyl-5-(2,4-dioxo-3,4-dihydro-2H-pyrimidin-1-yl)-2-methoxy-phenyl]-vinyl}-3-pyrrolidin-1-ylmethyl-phenyl)-methanesulfonamide] | 6.00 to 7.00 | 7.00 to 8.00 |
| COc1c(/C=C\c2ccc(NS(C)(=O)=O)cc2)cc(-n2ccc(=O)[nH]c2=O)cc1C(C)(C)C [IB-L1-1.34, N-(4-{(Z)-2-[3-tert-Butyl-5-(2,4-dioxo-3,4-dihydro-2H-pyrimidin-1-yl)-2-methoxy-phenyl]-vinyl}-phenyl)-methanesulfonamide] | 7.00 to 8.00 | > 8.00 |
| COc1c(/C=C/c2ccc(NS(C)(=O)=O)cc2)cc(-n2ccc(=O)[nH]c2=O)cc1C(C)(C)CO [IB-L1-1.45, (E)-N-(4-(5-(2,4-dioxo-3,4-dihydropyrimidin-1(2H)-yl)-3-(1-hydroxy-2-methylpropan-2-yl)-2-methoxystyryl)phenyl)methanesulfonamide] | 7.00 to 8.00 | > 8.00 |
| COc1c(/C=C/c2ccc(NS(C)(=O)=O)cc2)cc(-n2ccc(=O)[nH]c2=O)cc1-c1ccco1 [IB-L1-1.46, (E)-N-(4-(5-(2,4-dioxo-3,4-dihydropyrimidin-1(2H)-yl)-3-(furan-2-yl)-2-methoxystyryl)phenyl)methanesulfonamide] | 6.00 to 7.00 | > 8.00 |
| COc1c(/C=C/c2ccc(NS(C)(=O)=O)cc2)cc(-n2ccc(=O)[nH]c2=O)cc1-c1ccsc1 [IB-L1-1.47, (E)-N-(4-(5-(2,4-dioxo-3,4-dihydropyrimidin-1(2H)-yl)-2-methoxy-3-(thiophen-3-yl)styryl)phenyl)methanesulfonamide] | 6.00 to 7.00 | 7.00 to 8.00 |
| COc1c(/C=C/c2ccc(NS(C)(=O)=O)cc2)cc(-n2ccc(=O)[nH]c2=O)cc1-c1cccs1 [IB-L1-1.48, (E)-N-(4-(5-(2,4-dioxo-3,4-dihydropyrimidin-1(2H)-yl)-2-methoxy-3-(thiophen-2-yl)styryl)phenyl)methanesulfonamide] | 6.00 to 7.00 | > 8.00 |
| COc1c(/C=C/c2ccc(NS(C)(=O)=O)cc2)cc(-n2ccc(=O)[nH]c2=O)cc1S(C)(=O)=O [IB-L1-1.49, (E)-N-(4-(5-(2,4-dioxo-3,4-dihydropyrimidin-1(2H)-yl)-2-methoxy-3-(methylsulfonyl)styryl)phenyl)methanesulfonamide] | < 6.00 | < 6.00 |
| COc1c(/C=C/c2ccc(NS(C)(=O)=O)cc2)cc(-n2ccc(=O)[nH]c2=O)cc1-c1ccoc1 [IB-L1-1.50, (E)-N-(4-(5-(2,4-dioxo-3,4-dihydropyrimidin-1(2H)-yl)-3-(furan-3-yl)-2-methoxystyryl)phenyl)methanesulfonamide] | 6.00 to 7.00 | 7.00 to 8.00 |
| COc1c(I)cc(-n2ccc(=O)[nH]c2=O)cc1/C=C/c1ccc(NS(C)(=O)=O)cc1 [IB-L1-1.51, (E)-N-(4-(5-(2,4-dioxo-3,4-dihydropyrimidin-1(2H)-yl)-3-iodo-2-methoxystyryl)phenyl)methanesulfonamide] | < 6.00 | 7.00 to 8.00 |
